The target in one assay is human TLR7 (Homo sapiens (Human), UniProt Q9NYK1). Put plainly: TLR7 inhibition reporter assay (HEK-Blue SEAP). The format is cell-based. To be noted: HEK-Blue cells overexpressing human TLR7, gardiquimod 7.5 μM stimulation.
For the next assay, the target named is human TLR9 (Homo sapiens (Human), UniProt Q9NR96). Put plainly: TLR9 inhibition reporter assay (HEK-Blue SEAP).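 Further: SEAP driven by IFN-β minimal promoter carrying five NF-κB and AP-1 sites, 22 h at 37 °C, compounds 0.05 nM–50 µM, inhibition scaled between agonist-plus-DMSO and reference-inhibitor wells.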 For orientation: In a reporter assay the amount or activity of a reporter protein is the signal.
In another assay the target is human TLR8 (Homo sapiens (Human), UniProt Q9NR97). In words: TLR8 inhibition reporter assay (HEK-Blue SEAP).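 Further: SEAP driven by IFN-β minimal promoter with five NF-κB and AP-1 sites, compounds tested 0.05 nM to 50 µM, 22 h incubation, inhibition relative to agonist plus DMSO wells.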
The mark [1] stands for this setting: read-out: TLR9 IC50; HEK-Blue cells overexpressing human TLR9, ODN2006 5 nM stimulation, SEAP reporter.
[2] abbreviates: read-out: TLR8 IC50; HEK-Blue cells overexpressing human TLR8, R848 15.9 μM stimulation, SEAP reporter.
The mark [3] stands for this setting: read-out: TLR9 IC50; HEK-Blue cells overexpressing human TLR9; ODN2006 5 nM stimulation; SEAP reporter.
The mark [4] stands for this setting: read-out: TLR8 IC50; HEK-Blue cells overexpressing human TLR8; R848 15.9 μM stimulation; SEAP reporter.

Here are results for 38 molecules from patent publication US11912703B2, “6-azaindole compounds” (BRISTOL-MYERS SQUIBB COMPANY, priority 2017, dated 2024).

SMILES strings stand for the structures. Read-outs that look alike come from different tables or passages of the source.

human TLR7, sequence (Q9NYK1 27-1049): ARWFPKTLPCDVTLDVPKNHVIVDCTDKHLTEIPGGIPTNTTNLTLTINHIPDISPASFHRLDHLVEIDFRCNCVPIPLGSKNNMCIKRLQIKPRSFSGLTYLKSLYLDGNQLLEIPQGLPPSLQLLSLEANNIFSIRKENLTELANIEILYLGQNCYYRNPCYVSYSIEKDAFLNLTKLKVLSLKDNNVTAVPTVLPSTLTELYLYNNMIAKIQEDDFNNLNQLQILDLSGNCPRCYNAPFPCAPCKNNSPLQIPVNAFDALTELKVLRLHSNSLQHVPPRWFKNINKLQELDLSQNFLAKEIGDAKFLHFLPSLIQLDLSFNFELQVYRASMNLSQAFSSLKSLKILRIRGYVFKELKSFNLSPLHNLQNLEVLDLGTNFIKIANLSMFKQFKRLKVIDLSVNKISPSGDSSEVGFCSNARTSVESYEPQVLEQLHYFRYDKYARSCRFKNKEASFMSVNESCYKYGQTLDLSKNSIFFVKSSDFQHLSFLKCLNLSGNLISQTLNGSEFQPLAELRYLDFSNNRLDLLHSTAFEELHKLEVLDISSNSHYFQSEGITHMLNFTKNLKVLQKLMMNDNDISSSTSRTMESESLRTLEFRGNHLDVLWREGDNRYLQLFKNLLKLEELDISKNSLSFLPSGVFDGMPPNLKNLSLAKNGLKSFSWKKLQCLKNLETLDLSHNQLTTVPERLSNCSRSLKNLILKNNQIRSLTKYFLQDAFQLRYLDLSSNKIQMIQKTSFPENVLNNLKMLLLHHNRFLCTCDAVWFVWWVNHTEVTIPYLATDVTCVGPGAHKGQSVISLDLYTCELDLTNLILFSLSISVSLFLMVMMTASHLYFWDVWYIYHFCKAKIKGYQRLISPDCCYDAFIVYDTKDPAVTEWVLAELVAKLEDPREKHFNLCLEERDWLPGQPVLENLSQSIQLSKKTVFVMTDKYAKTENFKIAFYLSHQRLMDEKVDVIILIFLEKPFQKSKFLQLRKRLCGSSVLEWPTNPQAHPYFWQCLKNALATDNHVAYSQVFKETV
human TLR9, sequence (Q9NR96 26-1032): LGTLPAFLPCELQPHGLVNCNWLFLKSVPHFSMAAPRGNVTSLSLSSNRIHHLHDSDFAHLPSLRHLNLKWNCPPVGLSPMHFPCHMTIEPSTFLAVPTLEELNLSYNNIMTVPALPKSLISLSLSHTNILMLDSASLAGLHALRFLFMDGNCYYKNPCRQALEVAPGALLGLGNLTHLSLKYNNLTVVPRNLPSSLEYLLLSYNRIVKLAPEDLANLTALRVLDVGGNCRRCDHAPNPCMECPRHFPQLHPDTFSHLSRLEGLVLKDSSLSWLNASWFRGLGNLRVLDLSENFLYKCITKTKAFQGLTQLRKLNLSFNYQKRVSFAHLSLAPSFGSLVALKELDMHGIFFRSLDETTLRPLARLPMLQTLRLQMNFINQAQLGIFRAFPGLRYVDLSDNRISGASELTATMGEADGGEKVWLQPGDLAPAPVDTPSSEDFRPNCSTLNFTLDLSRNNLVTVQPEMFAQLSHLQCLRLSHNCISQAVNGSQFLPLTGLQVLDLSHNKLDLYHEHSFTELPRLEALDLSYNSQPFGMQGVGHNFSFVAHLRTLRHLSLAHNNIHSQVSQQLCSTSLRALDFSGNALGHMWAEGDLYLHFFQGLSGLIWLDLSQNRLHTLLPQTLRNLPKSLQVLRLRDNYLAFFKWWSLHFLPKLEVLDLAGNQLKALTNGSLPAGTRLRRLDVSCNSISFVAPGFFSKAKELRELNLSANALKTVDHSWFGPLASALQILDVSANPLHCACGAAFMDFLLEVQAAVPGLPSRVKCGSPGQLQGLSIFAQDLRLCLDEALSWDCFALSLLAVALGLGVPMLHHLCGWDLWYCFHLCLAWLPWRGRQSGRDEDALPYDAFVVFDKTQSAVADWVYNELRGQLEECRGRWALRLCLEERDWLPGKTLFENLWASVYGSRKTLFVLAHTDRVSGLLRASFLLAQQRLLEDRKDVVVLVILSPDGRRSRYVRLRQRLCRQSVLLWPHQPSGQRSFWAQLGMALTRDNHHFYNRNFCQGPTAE
human TLR8, sequence (Q9NR97 27-1041): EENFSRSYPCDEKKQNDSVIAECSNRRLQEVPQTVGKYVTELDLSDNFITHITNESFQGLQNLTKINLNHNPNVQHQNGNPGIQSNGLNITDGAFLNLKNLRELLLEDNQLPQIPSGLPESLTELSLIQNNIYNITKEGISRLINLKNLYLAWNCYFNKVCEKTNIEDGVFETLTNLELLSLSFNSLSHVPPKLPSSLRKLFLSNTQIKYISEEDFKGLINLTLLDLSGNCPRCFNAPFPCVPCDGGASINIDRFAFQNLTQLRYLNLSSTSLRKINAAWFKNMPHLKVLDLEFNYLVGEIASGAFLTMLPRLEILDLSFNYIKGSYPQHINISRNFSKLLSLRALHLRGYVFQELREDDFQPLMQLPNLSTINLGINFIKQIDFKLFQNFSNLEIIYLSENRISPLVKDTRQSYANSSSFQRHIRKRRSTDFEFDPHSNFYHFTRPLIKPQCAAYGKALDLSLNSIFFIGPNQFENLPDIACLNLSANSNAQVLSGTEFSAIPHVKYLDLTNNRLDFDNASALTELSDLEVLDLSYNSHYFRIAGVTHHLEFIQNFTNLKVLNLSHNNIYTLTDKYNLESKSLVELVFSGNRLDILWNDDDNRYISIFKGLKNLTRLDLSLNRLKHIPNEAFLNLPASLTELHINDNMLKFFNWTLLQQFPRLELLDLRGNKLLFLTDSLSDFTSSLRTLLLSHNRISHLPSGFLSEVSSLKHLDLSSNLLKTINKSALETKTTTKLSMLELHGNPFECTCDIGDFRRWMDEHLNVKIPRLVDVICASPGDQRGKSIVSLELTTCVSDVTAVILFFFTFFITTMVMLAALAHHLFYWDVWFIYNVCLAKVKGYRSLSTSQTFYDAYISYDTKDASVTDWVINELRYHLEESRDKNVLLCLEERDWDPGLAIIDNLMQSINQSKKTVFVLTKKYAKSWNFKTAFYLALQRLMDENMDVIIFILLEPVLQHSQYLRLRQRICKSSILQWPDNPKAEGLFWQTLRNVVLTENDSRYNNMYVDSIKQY

For `Cc1c(N2CCC(N3CCN(S(C)(=O)=O)CC3)CC2)ncc2[nH]c(-c3cc(C)c4ncnn4c3)c(C(C)C)c12` [Example 285], the IC50 against human TLR7 stood at 1.3 nM; at human TLR9 (setting [1]) it was 1870 nM; on human TLR8 (setting [2]), 1.6 nM.
For `Cc1cc(-c2[nH]c3cnc(C4CCN(CC(F)(F)F)CC4)c(F)c3c2C(C)C)cn2ncnc12` [Example 41] the same measures were 36 nM, > 50000 nM and 158 nM.
The matching figures for `Cc1c(-c2[nH]c3cnc(N4CCN(CC(C)(C)O)CC4)c(F)c3c2C(C)C)cn2ncnc2c1C` [Example 426]: 30 nM, > 50000 nM and 0.54 nM.
Consider `COc1cc(-c2[nH]c3cnc(N4CC5(CN(CC6(C)COC6)C5)C4)c(F)c3c2C(C)C)cn2ncnc12` [Example 376], for which the IC50 at human TLR7 was 9.5 nM; at human TLR9 (setting [1]), 6000 nM; at human TLR8 (setting [2]), > 3120 nM.
With `COc1cc(-c2[nH]c3cnc(C4CCC(NC5COC5)C4)cc3c2C(C)C)cn2ncnc12` (centres unmarked) [Example 93], the values for the IC50 against human TLR7, at human TLR9 (setting [1]) and at human TLR8 (setting [2]) were 18 nM, 2830 nM and 37 nM, respectively.
Take `COc1cc(-c2[nH]c3cnc(C4CCC(N(C)CC(=O)N(C)C)CC4)c(F)c3c2C(C)C)cn2ncnc12` (centres unmarked) [Example 79]: the IC50 against human TLR7 came to 3 nM; on human TLR9 (setting [1]), 842 nM; on human TLR8 (setting [2]) it was 3.6 nM.
Take `COc1cc(-c2[nH]c3cnc(N4CCC(N(C)C5COC5)CC4)cc3c2C(C)C)cn2ncnc12` [Example 314]: the IC50 came out at 4.3 nM on human TLR7, 3700 nM on human TLR9 (setting [1]) and 1.5 nM at human TLR8 (setting [2]).
As to `Cc1c(-c2[nH]c3cnc(C4CCC(NCC(C)(C)C)CC4)c(C)c3c2C(C)C)cn2ncnc2c1C` (centres unmarked) [Example 58], the IC50 against human TLR7 was 60 nM; at human TLR9 (setting [1]) it was 692 nM; at human TLR8 (setting [2]) it was 23 nM.
For `Cc1c(N2CCC(NCC3(C)COC3)CC2)ncc2[nH]c(-c3cc(C)c4ncnn4c3)c(C(C)C)c12` [Example 170], the values for the IC50 at human TLR7, at human TLR9 (setting [1]) and at human TLR8 (setting [2]) were 0.42 nM, 2290 nM and 0.71 nM, respectively.
In the case of `Cc1c(N2CCC(N3CC4(COC4)C3)CC2)ncc2[nH]c(-c3cc(C)c4ncnn4c3)c(C(C)C)c12` [Example 53], the IC50 on human TLR7 came out at 0.5 nM; on human TLR9 (setting [1]), 1390 nM; on human TLR8 (setting [2]), 2 nM.
In the case of `CCN1CC2(C1)CN(c1ncc3[nH]c(-c4cc(OC)c5ncnn5c4)c(C(C)C)c3c1F)C2` [Example 379], the IC50 worked out at 4 nM against human TLR7, 3630 nM on human TLR9 (setting [1]) and 2.3 nM at human TLR8 (setting [2]).
The matching figures for `Cc1c(-c2[nH]c3cnc(N4CCN(C(=O)CN(C)C)CC4)c(F)c3c2C(C)C)cn2ncnc2c1C` [Example 422]: 3.1 nM, 6820 nM and 2 nM.
As to `COc1cc(-c2[nH]c3cnc(N4CCC(NC(C)C)CC4)c(C)c3c2C(C)C)cn2ncnc12` [Example 202], the values for the IC50 against human TLR7, at human TLR9 (setting [1]) and at human TLR8 (setting [2]) were 0.35 nM, 2460 nM and 1.2 nM, respectively.
The matching figures for `Cc1c(-c2[nH]c3cnc(C4CCC(NC5CCOCC5)CC4)c(C)c3c2C(C)C)cn2ncnc2c1C` (centres unmarked) [Example 119]: 8.1 nM, 558 nM and 11 nM.
On to `COc1cc(-c2[nH]c3cnc(N4CCN(CC(=O)N(C)C)CC4)c(C)c3c2C(C)C)cn2ncnc12` [Example 252], for which the IC50 against human TLR7 was 6.4 nM; on human TLR9 (setting [1]), 3360 nM; on human TLR8 (setting [2]) it was 5.2 nM.
As for `COc1cc(-c2[nH]c3cnc(C4CCC(NC(C)C)CC4)cc3c2C(C)C)cn2ncnc12` (centres unmarked) [Example 323], the IC50 against human TLR7 amounted to 4.5 nM; at human TLR9 (setting [1]), 258 nM; on human TLR8 (setting [2]), 20 nM.
The matching figures for `Cc1cc(-c2[nH]c3cnc(C4CCC(NCC(C)(C)C)CC4)c(F)c3c2C(C)C)cn2ncnc12` (centres unmarked) [Example 260]: 1.4 nM, 837 nM and 1.7 nM.
Turning to `Cc1c(-c2[nH]c3cnc(N4CC5(C4)CN(C(C)C)C5)c(F)c3c2C(C)C)cn2ncnc2c1C` [Example 403], the results for the IC50 against human TLR7, on human TLR9 (setting [1]) and at human TLR8 (setting [2]) were 25 nM, 9260 nM and 1.7 nM, respectively.
The matching figures for `Cc1cc(-c2[nH]c3cnc(N4CCC(N5CCC5)CC4)c(F)c3c2C(C)C)cn2ncnc12` [Example 70]: 0.23 nM, 4000 nM and 0.78 nM.
The matching figures for `CNC(=O)CN(C)C1CCC(c2cc3c(C(C)C)c(-c4cc(OC)c5ncnn5c4)[nH]c3cn2)CC1` (centres unmarked) [Example 338]: 3.4 nM, 1110 nM and 30 nM.
The matching figures for `COc1cc(-c2[nH]c3cnc(C4CCC(NCC(C)(C)C)C4)cc3c2C(C)C)cn2ncnc12` (centres unmarked) [Example 144]: 14 nM, 1250 nM and 14 nM.
Take `Cc1c(-c2[nH]c3cnc(C4CCC(NCC(C)(C)O)CC4)c(C)c3c2C(C)C)cn2ncnc2c1C` (centres unmarked) [Example 122]: the IC50 against human TLR7 was 14 nM; at human TLR9 (setting [1]) it was 400 nM; on human TLR8 (setting [2]) it was 10 nM.
In the case of `Cc1c(-c2[nH]c3cnc(C4CCC(N5CCC5)CC4)cc3c2C(C)C)cn2ncnc2c1C` (centres unmarked) [Example 335], the values for the half-inhibitory concentration (IC50) at human TLR7, on human TLR9 (setting [1]) and on human TLR8 (setting [2]) were 4.3 nM, 669 nM and 42 nM, respectively.
Consider `CNC(=O)CN1CC2(C1)CN(c1ncc3[nH]c(-c4cn5ncnc5c(C)c4C)c(C(C)C)c3c1F)C2` [Example 395, 2-(6-(2-(7,8-dimethyl-[1,2,4]triazolo[1,5-a]pyridin-6-yl)-4-fluoro-3-isopropyl-1H-pyrrolo[2,3-c]pyridin-5-yl)-2,6-diazaspiro[3.3]heptan-2-yl)-N-methylacetamide], for which the IC50 at human TLR7 stood at 44 nM; at human TLR9 (setting [1]), 17500 nM; at human TLR8 (setting [2]), 6.6 nM.
As to `Cc1c(-c2[nH]c3cnc(N4CCN(CC5CCOCC5)CC4)c(C)c3c2C(C)C)cn2ncnc2c1C` [Example 419], the IC50 is 32 nM at human TLR7, 5900 nM at human TLR9 (setting [1]) and 1.4 nM at human TLR8 (setting [2]).
For `COC(C)(C)CNC1CCN(c2ncc3[nH]c(-c4cn5ncnc5c(C)c4C)c(C(C)C)c3c2C)CC1` [Example 173] the same measures were 1.5 nM, 653 nM and 0.54 nM.
As for `COc1cc(-c2[nH]c3cnc(C4CCC(NC[C@@H](F)C(C)(C)O)CC4)c(C)c3c2C(C)C)cn2ncnc12` (some centres unmarked) [Example 89], the figures for the half-inhibitory concentration (IC50) against human TLR7, at human TLR9 (setting [1]) and at human TLR8 (setting [2]) were 6.5 nM, 435 nM and 4.9 nM, respectively.
For `COc1cc(-c2[nH]c3cnc(N4CCC(N5CC6(COC6)C5)CC4)c(C)c3c2C(C)C)cn2ncnc12` [Example 139] the same measures were 1.1 nM, 1030 nM and 1 nM.
`CCN(C)C1CCN(c2ncc3[nH]c(-c4cc(C)c5ncnn5c4)c(C(C)C)c3c2C)CC1` [Example 235]: the half-maximal inhibitory concentration (IC50) at human TLR7 was found to be 0.24 nM; on human TLR9 (setting [1]), 2210 nM; on human TLR9 (setting [3]), 2210 nM; at human TLR8 (setting [2]), 1 nM; at human TLR8 (setting [4]), 1 nM.
Turning to `Cc1cc(-c2[nH]c3cnc(C4CCN(CC(=O)N(C)C)CC4)cc3c2C(C)C)cn2ncnc12` [Example 299], the figures for the IC50 on human TLR7, on human TLR9 (setting [1]) and on human TLR8 (setting [2]) were 2.9 nM, 356 nM and 25 nM, respectively.
The matching figures for `Cc1c(-c2[nH]c3cnc(N4CCNCC4)c(F)c3c2C(C)C)cn2ncnc2c1C` [Example 393]: 1.4 nM, 8730 nM and 0.51 nM.
On to `COc1cc(-c2[nH]c3cnc(C4CCNCC4)c(C)c3c2C(C)C)cn2ncnc12` [Example 1, 6-(3-isopropyl-4-methyl-5-(piperidin-4-yl)-1H-pyrrolo[2,3-c]pyridin-2-yl)-8-methoxy-[1,2,4] triazolo[1,5-a]pyridine], for which the figures for the IC50 against human TLR7, on human TLR9 (setting [1]) and at human TLR8 (setting [2]) were 4.7 nM, 550 nM and 89 nM, respectively.
In the case of `Cc1c(-c2[nH]c3cnc(C4CCC(NC[C@@H](F)C(C)(C)O)CC4)c(F)c3c2C(C)C)cn2ncnc2c1C` (some centres unmarked) [Example 240], the IC50 against human TLR7 came to 0.96 nM; at human TLR9 (setting [1]), 2780 nM; at human TLR8 (setting [2]) it was 0.39 nM.
For `Cc1c(N2CCC(NC34CC(C3)C4)CC2)ncc2[nH]c(-c3cc(C)c4ncnn4c3)c(C(C)C)c12` [Example 148] the same measures were 1.1 nM, 1170 nM and 1.7 nM.
Take `Cc1c(-c2[nH]c3cnc(C4CCC(NC56CC(C5)C6)CC4)c(F)c3c2C(C)C)cn2ncnc2c1C` (centres unmarked) [Example 239]: the concentration for half-maximal inhibition (IC50) at human TLR7 came out at 2.6 nM; on human TLR9 (setting [1]) it was 15900 nM; on human TLR8 (setting [2]), 2.6 nM.
`COc1cc(-c2[nH]c3cnc(N4CC5(CN(C(=O)CN6CCOCC6)C5)C4)c(F)c3c2C(C)C)cn2ncnc12` [Example 367, 1-(6-(4-fluoro-3-isopropyl-2-(8-methoxy-[1,2,4]triazolo[1,5-a]pyridin-6-yl)-1H-pyrrolo[2,3-c]pyridin-5-yl)-2,6-diazaspiro[3.3]heptan-2-yl)-2-morpholinoethan-1-one]: the IC50 is 159 nM at human TLR7, > 50000 nM on human TLR9 (setting [1]) and 52 nM on human TLR8 (setting [2]).
The matching figures for `COc1cc(-c2[nH]c3cnc(N4CCC(N5CCOCC5)CC4)c(C)c3c2C(C)C)cn2ncnc12` [Example 278]: 0.79 nM, 1100 nM and 0.58 nM.
As to `COc1cc(-c2[nH]c3cnc(C4CCC(N(C)C(C)C)CC4)c(F)c3c2C(C)C)cn2ncnc12` (centres unmarked) [Example 227], the half-maximal inhibitory concentration (IC50) at human TLR7 came out at 1.9 nM; on human TLR9 (setting [3]), 4320 nM; at human TLR8 (setting [4]), 2.6 nM.

By IC50 is commonly meant the concentration that gives 50% inhibition.
